Experimental data published in US20260250318A1, “COMPOSITIONS AND METHODS FOR CROSSING THE BLOOD BRAIN BARRIER” (VOYAGER THERAPEUTICS, INC., priority 2022, published 2026).

What was measured:
brain = experiment: Matured TTM-001 and TTM-002 variants, NGS enrichment in mouse brain; format: in vivo, mice; conditions: relative to AAV9 control
[1] = test system: brains, heart, liver, muscle, and DRG of the NHPs; experiment: Maturation of TTM-001 and TTM-002 capsids, NGS enrichment in NHP tissues; format: in vivo; conditions: relative to AAV9 control
Outline: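 Variants carry mutations within and flanking the loop IV peptide insert: positions 450–466 were triplet-randomized, while positions 449–466 received low-frequency point mutations. The combined pool went into two NHPs, and each peptide was scored by NGS enrichment ratio against AAV9.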

[2] = NGS fold-enrichment, mouse brain
[3] = NGS fold-enrichment of RNA, NHP brain
[4] = NGS fold-enrichment, NHP liver DNA
[5] = NGS fold-enrichment, NHP liver RNA
[6] = NGS fold-enrichment, NHP muscle
[7] = NGS fold-enrichment of matured AAV capsid variants, NHP brain, RNA
[8] = NGS fold-enrichment, brain of mice
[9] = NGS fold-enrichment, DRG of NHPs
[10] = NGS fold-enrichment, RNA, brain of NHPs
[11] = NGS fold-enrichment, heart of NHPs
[12] = NGS fold-enrichment, liver DNA of NHPs
[13] = NGS fold-enrichment, liver RNA of NHPs
[14] = NGS fold-enrichment, muscle of NHPs

KTIDGHDSPHKSGQNQHA
Fold Enrichment relative to AAV9, Brain (Mouse) (brain; [2]): 10.781 fold
Fold Enrichment relative to AAV9, Brain (NHP) [1, 3]: 91.058 fold
Fold Enrichment relative to AAV9, DRG (NHP) ([1]; NGS fold-enrichment, NHP DRG): 0.000 fold
Fold Enrichment relative to AAV9, Heart (NHP) ([1]; NGS fold-enrichment, NHP heart): 0.082 fold
Fold Enrichment relative to AAV9, Liver DNA (NHP) [1, 4]: 0.000 fold
Fold Enrichment relative to AAV9, Liver RNA (NHP) [1, 5]: 0.000 fold
Fold Enrichment relative to AAV9, Muscle (NHP) [1, 6]: 0.000 fold

KTIDGHDSPHKSGRNQQI
Fold Enrichment relative to AAV9, Brain (Mouse) (brain; [2]): 10.363 fold
Fold Enrichment relative to AAV9, Brain (NHP) [1, 3]: 80.240 fold
Fold Enrichment relative to AAV9, DRG (NHP) ([1]; NGS fold-enrichment, NHP DRG): 0.000 fold
Fold Enrichment relative to AAV9, Heart (NHP) ([1]; NGS fold-enrichment, NHP heart): 0.037 fold
Fold Enrichment relative to AAV9, Liver DNA (NHP) [1, 4]: 0.144 fold
Fold Enrichment relative to AAV9, Liver RNA (NHP) [1, 5]: 0.040 fold
Fold Enrichment relative to AAV9, Muscle (NHP) [1, 6]: 0.000 fold

KTIDGSGSPHSKALNKQT
Fold Enrichment relative to AAV9, Brain (Mouse) (brain; mouse brain): 74.626 fold
Fold Enrichment relative to AAV9, Brain (NHP) [1, 7]: 58.992 fold
Fold Enrichment relative to AAV9, DRG (NHP) ([1]; NHP DRG): 0.000 fold
Fold Enrichment relative to AAV9, Heart (NHP) ([1]; NHP heart): 0.267 fold
Fold Enrichment relative to AAV9, Liver DNA (NHP) ([1]; NHP liver, DNA): 0.056 fold
Fold Enrichment relative to AAV9, Liver RNA (NHP) ([1]; NHP liver, RNA): 0.000 fold
Fold Enrichment relative to AAV9, Muscle (NHP) ([1]; NHP muscle): 0.000 fold

KTIDGSGSPHSKAQNQQH
Fold Enrichment relative to AAV9, Brain (Mouse) (brain; [8]): 57.914 fold
Fold Enrichment relative to AAV9, Brain (Mouse) (brain; [2]): 57.914 fold
Fold Enrichment relative to AAV9, Brain (NHP) [1, 3]: 79.090 fold
Fold Enrichment relative to AAV9, DRG (NHP) [1, 9]: 0.000 fold
Fold Enrichment relative to AAV9, DRG (NHP) ([1]; NGS fold-enrichment, NHP DRG): 0.000 fold
Fold Enrichment relative to AAV9, Heart (NHP) ([1]; NGS fold-enrichment, NHP heart): 0.000 fold
Fold Enrichment relative to AAV9, Liver DNA (NHP) [1, 4]: 0.049 fold
Fold Enrichment relative to AAV9, Liver RNA (NHP) [1, 5]: 0.136 fold
Fold Enrichment relative to AAV9, Muscle (NHP) [1, 6]: 0.000 fold
Fold Enrichment relative to AAV9, Brain (NHP) [1, 10]: 79.090 fold
Fold Enrichment relative to AAV9, Heart (NHP) [1, 11]: 0.000 fold
Fold Enrichment relative to AAV9, Liver DNA (NHP) [1, 12]: 0.049 fold
Fold Enrichment relative to AAV9, Liver RNA (NHP) [1, 13]: 0.136 fold
Fold Enrichment relative to AAV9, Muscle (NHP) [1, 14]: 0.000 fold

KTIDGSGSPHSKGQNRQT
Fold Enrichment relative to AAV9, Brain (Mouse) (brain; [8]): 63.626 fold
Fold Enrichment relative to AAV9, DRG (NHP) [1, 9]: 0.000 fold
Fold Enrichment relative to AAV9, Brain (NHP) [1, 10]: 73.930 fold
Fold Enrichment relative to AAV9, Heart (NHP) [1, 11]: 0.000 fold
Fold Enrichment relative to AAV9, Liver DNA (NHP) [1, 12]: 0.091 fold
Fold Enrichment relative to AAV9, Liver RNA (NHP) [1, 13]: 0.106 fold
Fold Enrichment relative to AAV9, Muscle (NHP) [1, 14]: 0.000 fold

KTIDGSGSPHSKSQNHQT
Fold Enrichment relative to AAV9, Brain (Mouse) (brain; mouse brain): 63.174 fold
Fold Enrichment relative to AAV9, Brain (NHP) [1, 7]: 51.307 fold
Fold Enrichment relative to AAV9, DRG (NHP) ([1]; NHP DRG): 0.000 fold
Fold Enrichment relative to AAV9, Heart (NHP) ([1]; NHP heart): 0.000 fold
Fold Enrichment relative to AAV9, Liver DNA (NHP) ([1]; NHP liver, DNA): 0.269 fold
Fold Enrichment relative to AAV9, Liver RNA (NHP) ([1]; NHP liver, RNA): 0.000 fold
Fold Enrichment relative to AAV9, Muscle (NHP) ([1]; NHP muscle): 0.000 fold

KTIEGHDSPHKSGRNQQT
Fold Enrichment relative to AAV9, Brain (Mouse) (brain; [2]): 7.818 fold
Fold Enrichment relative to AAV9, Brain (NHP) [1, 3]: 75.838 fold
Fold Enrichment relative to AAV9, DRG (NHP) ([1]; NGS fold-enrichment, NHP DRG): 0.000 fold
Fold Enrichment relative to AAV9, Heart (NHP) ([1]; NGS fold-enrichment, NHP heart): 0.065 fold
Fold Enrichment relative to AAV9, Liver DNA (NHP) [1, 4]: 0.079 fold
Fold Enrichment relative to AAV9, Liver RNA (NHP) [1, 5]: 0.000 fold
Fold Enrichment relative to AAV9, Muscle (NHP) [1, 6]: 0.017 fold

KTIIGGGSPHSKAHNQQT
Fold Enrichment relative to AAV9, Brain (Mouse) (brain; [8]): 65.492 fold
Fold Enrichment relative to AAV9, Brain (Mouse) (brain; [2]): 65.492 fold
Fold Enrichment relative to AAV9, Brain (NHP) [1, 3]: 75.872 fold
Fold Enrichment relative to AAV9, DRG (NHP) [1, 9]: 0.000 fold
Fold Enrichment relative to AAV9, DRG (NHP) ([1]; NGS fold-enrichment, NHP DRG): 0.000 fold
Fold Enrichment relative to AAV9, Heart (NHP) ([1]; NGS fold-enrichment, NHP heart): 0.050 fold
Fold Enrichment relative to AAV9, Liver DNA (NHP) [1, 4]: 0.235 fold
Fold Enrichment relative to AAV9, Liver RNA (NHP) [1, 5]: 0.000 fold
Fold Enrichment relative to AAV9, Muscle (NHP) [1, 6]: 0.000 fold
Fold Enrichment relative to AAV9, Brain (NHP) [1, 10]: 75.872 fold
Fold Enrichment relative to AAV9, Heart (NHP) [1, 11]: 0.050 fold
Fold Enrichment relative to AAV9, Liver DNA (NHP) [1, 12]: 0.235 fold
Fold Enrichment relative to AAV9, Liver RNA (NHP) [1, 13]: 0.000 fold
Fold Enrichment relative to AAV9, Muscle (NHP) [1, 14]: 0.000 fold

KTIIGGGSPHSKAQNPQT
Fold Enrichment relative to AAV9, Brain (Mouse) (brain; mouse brain): 53.992 fold
Fold Enrichment relative to AAV9, Brain (NHP) [1, 7]: 58.924 fold
Fold Enrichment relative to AAV9, DRG (NHP) ([1]; NHP DRG): 0.000 fold
Fold Enrichment relative to AAV9, Heart (NHP) ([1]; NHP heart): 0.202 fold
Fold Enrichment relative to AAV9, Liver DNA (NHP) ([1]; NHP liver, DNA): 0.126 fold
Fold Enrichment relative to AAV9, Liver RNA (NHP) ([1]; NHP liver, RNA): 0.000 fold
Fold Enrichment relative to AAV9, Muscle (NHP) ([1]; NHP muscle): 0.000 fold

KTIIGSGSPHSKAQDRQT
Fold Enrichment relative to AAV9, Brain (Mouse) (brain; mouse brain): 53.981 fold
Fold Enrichment relative to AAV9, Brain (NHP) [1, 7]: 58.258 fold
Fold Enrichment relative to AAV9, DRG (NHP) ([1]; NHP DRG): 1.393 fold
Fold Enrichment relative to AAV9, Heart (NHP) ([1]; NHP heart): 0.230 fold
Fold Enrichment relative to AAV9, Liver DNA (NHP) ([1]; NHP liver, DNA): 0.045 fold
Fold Enrichment relative to AAV9, Liver RNA (NHP) ([1]; NHP liver, RNA): 0.000 fold
Fold Enrichment relative to AAV9, Muscle (NHP) ([1]; NHP muscle): 0.219 fold

KTIIGSGSPHSKAQHQLT
Fold Enrichment relative to AAV9, Brain (Mouse) (brain; [8]): 100.144 fold
Fold Enrichment relative to AAV9, DRG (NHP) [1, 9]: 0.000 fold
Fold Enrichment relative to AAV9, Brain (NHP) [1, 10]: 72.291 fold
Fold Enrichment relative to AAV9, Heart (NHP) [1, 11]: 0.000 fold
Fold Enrichment relative to AAV9, Liver DNA (NHP) [1, 12]: 0.000 fold
Fold Enrichment relative to AAV9, Liver RNA (NHP) [1, 13]: 0.000 fold
Fold Enrichment relative to AAV9, Muscle (NHP) [1, 14]: 0.000 fold

KTIIGSGSPHSKAQNRHT
Fold Enrichment relative to AAV9, Brain (Mouse) (brain; [8]): 210.515 fold
Fold Enrichment relative to AAV9, Brain (Mouse) (brain; [2]): 210.515 fold
Fold Enrichment relative to AAV9, Brain (NHP) [1, 3]: 217.176 fold
Fold Enrichment relative to AAV9, DRG (NHP) [1, 9]: 0.000 fold
Fold Enrichment relative to AAV9, DRG (NHP) ([1]; NGS fold-enrichment, NHP DRG): 0.000 fold
Fold Enrichment relative to AAV9, Heart (NHP) ([1]; NGS fold-enrichment, NHP heart): 0.000 fold
Fold Enrichment relative to AAV9, Liver DNA (NHP) [1, 4]: 0.000 fold
Fold Enrichment relative to AAV9, Liver RNA (NHP) [1, 5]: 0.000 fold
Fold Enrichment relative to AAV9, Muscle (NHP) [1, 6]: 0.000 fold
Fold Enrichment relative to AAV9, Brain (NHP) [1, 10]: 217.176 fold
Fold Enrichment relative to AAV9, Heart (NHP) [1, 11]: 0.000 fold
Fold Enrichment relative to AAV9, Liver DNA (NHP) [1, 12]: 0.000 fold
Fold Enrichment relative to AAV9, Liver RNA (NHP) [1, 13]: 0.000 fold
Fold Enrichment relative to AAV9, Muscle (NHP) [1, 14]: 0.000 fold

KTIIKNGSPHSKAQNQQT
Fold Enrichment relative to AAV9, Brain (Mouse) (brain; mouse brain): 75.547 fold
Fold Enrichment relative to AAV9, Brain (NHP) [1, 7]: 50.587 fold
Fold Enrichment relative to AAV9, DRG (NHP) ([1]; NHP DRG): 0.000 fold
Fold Enrichment relative to AAV9, Heart (NHP) ([1]; NHP heart): 0.000 fold
Fold Enrichment relative to AAV9, Liver DNA (NHP) ([1]; NHP liver, DNA): 0.751 fold
Fold Enrichment relative to AAV9, Liver RNA (NHP) ([1]; NHP liver, RNA): 0.000 fold
Fold Enrichment relative to AAV9, Muscle (NHP) ([1]; NHP muscle): 0.000 fold

KTIKGNDSPHKSVQNQQT
Fold Enrichment relative to AAV9, Brain (Mouse) (brain; [2]): 8.603 fold
Fold Enrichment relative to AAV9, Brain (NHP) [1, 3]: 85.986 fold
Fold Enrichment relative to AAV9, DRG (NHP) ([1]; NGS fold-enrichment, NHP DRG): 0.000 fold
Fold Enrichment relative to AAV9, Heart (NHP) ([1]; NGS fold-enrichment, NHP heart): 0.135 fold
Fold Enrichment relative to AAV9, Liver DNA (NHP) [1, 4]: 0.000 fold
Fold Enrichment relative to AAV9, Liver RNA (NHP) [1, 5]: 0.263 fold
Fold Enrichment relative to AAV9, Muscle (NHP) [1, 6]: 0.000 fold

KTIKGQDSPHKIGQNQQT
Fold Enrichment relative to AAV9, Brain (Mouse) (brain; [2]): 11.829 fold
Fold Enrichment relative to AAV9, Brain (NHP) [1, 3]: 110.357 fold
Fold Enrichment relative to AAV9, DRG (NHP) ([1]; NGS fold-enrichment, NHP DRG): 0.000 fold
Fold Enrichment relative to AAV9, Heart (NHP) ([1]; NGS fold-enrichment, NHP heart): 0.103 fold
Fold Enrichment relative to AAV9, Liver DNA (NHP) [1, 4]: 0.135 fold
Fold Enrichment relative to AAV9, Liver RNA (NHP) [1, 5]: 0.166 fold
Fold Enrichment relative to AAV9, Muscle (NHP) [1, 6]: 0.058 fold

KTIKGSGSPHSKAQDLQT
Fold Enrichment relative to AAV9, Brain (Mouse) (brain; [8]): 58.576 fold
Fold Enrichment relative to AAV9, DRG (NHP) [1, 9]: 0.000 fold
Fold Enrichment relative to AAV9, Brain (NHP) [1, 10]: 63.260 fold
Fold Enrichment relative to AAV9, Heart (NHP) [1, 11]: 0.000 fold
Fold Enrichment relative to AAV9, Liver DNA (NHP) [1, 12]: 0.218 fold
Fold Enrichment relative to AAV9, Liver RNA (NHP) [1, 13]: 0.000 fold
Fold Enrichment relative to AAV9, Muscle (NHP) [1, 14]: 0.000 fold
